The source of these data is ChEMBL document CHEMBL1149051, “Isolation of flavins from the Amazonian shrub Faramea guianesis” (1994).

Assay type in all cases: functional
For experiment [1], the system named is Leishmania amazonensis. The experiment in a line: Antileishmanial activity against Leishmania amazonensis H142 Guianese amastigotes in BALB/c mouse macrophages assessed as survival of peritoneal macrophages at 0.25 mg/ml relative to control.
Experiment [2] deals with Leishmania amazonensis. The experiment in a line: Antileishmanial activity against Leishmania amazonensis H142 Guianese amastigotes in BALB/c mouse macrophages assessed as inhibition of infection at 0.04 mg/ml relative to control.
In experiment [3] the test system is Leishmania amazonensis. The experiment in a line: Antileishmanial activity against Leishmania amazonensis H142 Guianese amastigotes in BALB/c mouse macrophages assessed as inhibition of infection at 0.05 mg/ml relative to control.
The test system of experiment [4] is Leishmania amazonensis. The experiment is described as follows: Antileishmanial activity against Leishmania amazonensis H142 Guianese amastigotes in BALB/c mouse macrophages assessed as inhibition of infection at 0.02 mg/ml relative to control.

Consider `Oc1ccc(C2CCc3c(O)cc(O)cc3O2)cc1` (centres undefined), for which, in the experiment on Leishmania amazonensis [1], the survival at 250 µg/mL stood at 0%. The inhibition (in general, the drop in the measured response relative to a control, in per cent) at 40 µg/mL in the experiment on Leishmania amazonensis [2] is 100%. Besides, in the experiment on Leishmania amazonensis [3], the inhibition at 50 µg/mL turned out to be 57%. In addition, the inhibition at 20 µg/mL in the experiment with Leishmania amazonensis [4] stood at 100%.
